Key:
[1] = system: uPA (urokinase plasminogen activator); assay: gene expression with TPA induction, RT-PCR; assay type: cell-based; settings: HepG2
Method: (§1) MMP and Ets-1, the expression of which is inhibited by menatetrenone, are known to be genes that are induced by 12-O-tetradecanoylphorbol-13-acetate (TPA) as well as uPA (urokinase plasminogen activator) and the like. In order to discover whether menatetrenone controls expression of genes activated by TPA, TPA was added to HepG2 cultured hepatic cancer cells at a concentration of 20 nM, menatetrenone was then added thereto, and RT-PCR and Western blot were performed to investigate whether expression of the aforementioned gene expression of which was induced by TPA was affected. […] On the other hand, the uPA receptor uPAR and the uPA inhibitor PAI were not affected.

uPA inhibitor PAI = assay: gene expression with TPA induction, RT-PCR; assay type: cell-based; settings: HepG2; 20 nM of TPA alone
Method: as §1

MMP-3 [2] = assay: gene expression with TPA induction, RT-PCR; assay type: cell-based; settings: HepG2
Method: as §1

Ets-1 = assay: gene expression with TPA induction, RT-PCR; assay type: cell-based; settings: HepG2
Method: as §1

MMP-1 [3] = assay: gene expression with TPA induction, RT-PCR; assay type: cell-based; settings: HepG2
Method: as §1

uPA receptor uPAR = assay: gene expression with TPA induction, RT-PCR; assay type: cell-based; settings: HepG2; 20 nM of TPA alone
Method: as §1

MMP-7 [4] = assay: gene expression with TPA induction, RT-PCR; assay type: cell-based; settings: HepG2
Method: as §1

p16 = assay: CDK inhibitor expression by RT-PCR in hepatic cancer cells; assay type: cell-based; settings: 10^−6 to 10^−4 M
Method: (§2) To investigate the mechanism of inhibition of cell proliferation, genes involved in promoting the cell cycle were focused on, and changes caused by addition of menatetrenone in the amount of expression of CDK inhibitors p21, p27 and p16 which inhibit cyclin dependent kinase (CDK), an enzyme which promotes the cell cycle, were analyzed by the RT-PCR and Western blot methods. In this test, menatetrenone was added at concentrations of 0 M, 10^−6 M, 10^−5 M and 10^−4 M to HepG2, Huh7, Hep3B and HLE hepatic cancer cell lines, RNA was collected after 48 hours, and 1 μg of total RNA was subjected to RT-PCR to investigate expression of p21, p27 and p16. RT-PCR was performed on GAPDH (glyceraldehyde 3-phosphate dehydrogenase) as a control.

[5] = cited from earlier work
[6] = system: HepG2 hepatic cancer cells; assay: cell cycle analysis by flow cytometry (FACS); assay type: cell-based; settings: 10^−6 to 10^−4 M, 48 hours
Method: (§3) To investigate the effects of menatetrenone on the cell cycles of cancer cells, distributions according to DNA amount in hepatic cancer cells to which menatetrenone had been added were analyzed by flow cytometry (FACS). In this test, menatetrenone was added at concentrations of 0 M, 10^−6 M, 10^−5 M and 10^−4 m to HepG2, Huh7, Hep3B and HLE hepatic cancer cells, and changes in the cell cycles were observed by FACS 48 hours later.

[7] = system: Huh7 hepatic cancer cells; assay: cell cycle analysis by flow cytometry (FACS); assay type: cell-based; settings: 10^−6 to 10^−4 M, 48 hours
Method: as §3

[8] = system: Hep3B hepatic cancer cells; assay: cell cycle analysis by flow cytometry (FACS); assay type: cell-based; settings: 10^−6 to 10^−4 M, 48 hours
Method: as §3

HLE hepatic cancer cells = assay: cell cycle analysis by flow cytometry (FACS); assay type: cell-based; settings: 10^−6 to 10^−4 M, 48 hours
Method: as §3

GAPDH = assay: RT-PCR of invasion-related factors in hepatic cancer cells; assay type: cell-based; settings: hepatic cancer cells (HepG2, Hep3B, Huh7)
Method: (§4) Test was performed by RT-PCR to investigate MMP expression. This test was to investigate expression of various MMPs (MMP-1, MMP-2, MMP-3, MMP-7, MMP-9 and MMP-14 (MT1-MMP)) and of transcription factor Ets-1 that affect MMP expression and the extracellular matrix receptor β1 integrin when menatetrenone was added to various hepatic cancer cells (HepG2, Hep3B, Huh7).

MMP-3 [9] = assay: as above; assay type: cell-based; settings: hepatic cancer cells (HepG2, Hep3B, Huh7)
Method: as §4

MMP-14 (MT1-MMP) = assay: as above; assay type: cell-based; settings: hepatic cancer cells (HepG2, Hep3B, Huh7)
Method: as §4

MMP-1 [10] = assay: as above; assay type: cell-based; settings: hepatic cancer cells (HepG2, Hep3B, Huh7)
Method: as §4

[11] = system: transcription factor Ets-1; assay: as above; assay type: cell-based; settings: hepatic cancer cells (HepG2, Hep3B, Huh7)
Method: as §4

β1 integrin = assay: as above; assay type: cell-based; settings: hepatic cancer cells (HepG2, Hep3B, Huh7)
Method: as §4

MMP-7 [12] = assay: as above; assay type: cell-based; settings: hepatic cancer cells (HepG2, Hep3B, Huh7)
Method: as §4

AP-1 = assay: gel shift assay of transcription factor binding activity; assay type: cell-based; settings: HepG2 nuclear proteins after 24 hours; 32P-labeled DNA probe
Method: (§5) MMP have binding sites for transcription factors AP-1, Ets-1, Tcf/Lef and the like at common to their promoter regions and which are known to regulate MMP expression. Gel shift assay was performed to investigate whether the binding activity of transcription factors AP-1 and Tcf/Lef, which regulate MMP expression, is affected by addition of menatetrenone. In this test menatetrenone was added to HepG2 hepatic cancer cells, nuclear proteins were extracted after 24 hours and reacted with double-stranded DNA having binding sites for AP-1 and Tcf/Lef labeled with ^32P, and gel shift assay was performed. […] Reduction and shifting of the band was also seen with anti-c-fos antibodies (“S” in the Figure).

Tcf/Lef = assay: as above; assay type: cell-based; settings: HepG2 nuclear proteins after 24 hours; 32P-labeled DNA probe
Method: as §5

[13] = system: hepatic cancer cells (HepG2); assay: Matrigel invasion test (double chamber); assay type: cell-based; settings: 10^−6 to 10^−4 M, 24 hours, NIH3T3 feeder
Method: To investigate the effect of menatetrenone in inhibiting invasion and metastasis of cancer cells, menatetrenone was added to hepatic cancer cells (HepG2) at concentrations of 0 M, 10^−6 M, 10^−5 M and 10^−4 M, and ability of the cancer cells to invade Matrigel was measured. In this test, cancer cells were spread on Matrigel which had been coated on the upper chamber of a double chamber, menatetrenone was added thereto. NIH3T3 cells were spread on the lower chamber as a feeder. The number of cells that had passed through the Matrigel and migrated to the bottom of the upper chamber after 24 hours was observed microscopically.

[14] = system: Huh7 hepatic cancer cell line; assay: cell proliferation by WST assay; assay type: cell-based; settings: 10^−6 to 10^−4 M, 48 hours, vs control without menatetrenone
Method: (§6) Menatetrenone was added at concentrations of 0 M, 10^−6 M, 10^−5 M and 10^−4 M to HepG2, Huh7, Hep3B and HLE hepatic cancer cell lines, and cell proliferation was studied by WST assay after 48 hours.

[15] = system: HepG2 hepatic cancer cell line; assay: cell proliferation by WST assay; assay type: cell-based; settings: 10^−6 to 10^−4 M, 48 hours, vs control without menatetrenone
Method: as §6

[16] = system: HLE hepatic cancer cell line; assay: cell proliferation by WST assay; assay type: cell-based; settings: 10^−6 to 10^−4 M, 48 hours, vs control without menatetrenone
Method: as §6

[17] = system: Hep3B hepatic cancer cell line; assay: cell proliferation by WST assay; assay type: cell-based; settings: 10^−6 to 10^−4 M, 48 hours, vs control without menatetrenone
Method: as §6

p27 = assay: CDK inhibitor expression by RT-PCR and Western blot in hepatic cancer cells; assay type: cell-based; settings: 10^−6 to 10^−4 M
Method: as §2, with “control. In this test, menatetrenone was added at concentrations of 0 M, 10^−6 M, 10^−5 M and 10^−4 M to HepG2, Huh7, Hep3B and HLE hepatic cancer cell lines, proteins were extracted from the various cells, subjected to SDS-PAGE electrophoresis, blotted on PVP membranes and then incubated with p21 and p27 antibodies, and p21 and p27 protein expression was investigated by ECL.” for “control.”

p21 = assay: as above; assay type: cell-based; settings: 10^−6 to 10^−4 M
Method: as §2, with “control. In this test, menatetrenone was added at concentrations of 0 M, 10^−6 M, 10^−5 M and 10^−4 M to HepG2, Huh7, Hep3B and HLE hepatic cancer cell lines, proteins were extracted from the various cells, subjected to SDS-PAGE electrophoresis, blotted on PVP membranes and then incubated with p21 and p27 antibodies, and p21 and p27 protein expression was investigated by ECL.” for “control.”

MMP-3 [18] = assay: gene expression with TPA induction, Western blot; assay type: cell-based; settings: HepG2, 20 nM TPA then menatetrenone
Method: as §1

MMP-1 [19] = assay: gene expression with TPA induction, Western blot; assay type: cell-based; settings: HepG2, 20 nM TPA then menatetrenone
Method: as §1

MMP-3 [20] = assay: Western blot of MMP protein expression in hepatic cancer cells; assay type: cell-based; settings: hepatic cancer cells (HepG2, Hep3B, Huh7)
Method: (§7) Testing was performed by Western blot to investigate MMP expression. In this test protein expressions of MMP-1 and MMP-3 were investigated when menatetrenone was added to various hepatic cancer cells (HepG2, Hep3B, Huh7).

MMP-1 [21] = assay: as above; assay type: cell-based; settings: hepatic cancer cells (HepG2, Hep3B, Huh7)
Method: as §7

MMP-1 promoter = assay: MMP gene promoter activity test (luciferase reporter); assay type: cell-based; settings: Huh7 cells, 48 hours
Method: (§8) Next, promoter reporter genes for MMP-1, MMP-3 and MMP-7 were introduced into Huh7 hepatic cancer cells, and the effect of menatetrenone on the activity of these MMP promoters was investigated. The MMP-1, MMP-3 and MMP-7 promoter-luciferase reporter plasmids used were prepared by replacing the reporter gene part of the MMP promoter-CAT reporter plasmid reported in Ozaki I, Mizuta T, Zhang H, Yoshimura T, Kawazoe S, Eguchi Y, Yasutake T, Hisatomi A, Sakai T and Yamamoto K, “Induction of multiple matrix metalloproteinase genes in human hepatocellular carcinoma by hepatocyte growth factor via a transcription factor Ets-1,” Hepatol. Res. 27, 288-300. The various MMP-luciferase plasmids were introduced into Huh7 hepatic cancer cells using lipofectamine, menatetrenone was added at various concentrations, and after 48 hours the cells were collected and luciferase activity measured to investigate the effects of menatetrenone on MMP-1, MMP-3 and MMP-7 gene promoter activity.

MMP-3 promoter = assay: as above; assay type: cell-based; settings: Huh7 cells, 48 hours
Method: as §8

MMP-7 promoter = assay: as above; assay type: cell-based; settings: Huh7 cells, 48 hours
Method: as §8

[22] = cited from earlier work; remark: listed apart in the source

CCCCCCCCCCCCCC(=O)O[C@@H]1[C@@H](C)[C@@]2(O)[C@@H](C=C(CO)C[C@]3(O)C(=O)C(C)=C[C@@H]23)[C@@H]2C(C)(C)[C@]12OC(C)=O [TPA, 12-O-tetradecanoylphorbol-13-acetate]
increased: mRNA expression of uPA ([1]; 20 nM of TPA alone) | mRNA expression of MMP-3 (MMP-3 [2]; 20 nM of TPA alone) | mRNA expression of Ets-1 (Ets-1; 20 nM of TPA alone) | mRNA expression of MMP-1 (MMP-1 [3]; 20 nM of TPA alone) | mRNA expression of MMP-7 (MMP-7 [4]; 20 nM of TPA alone)
not affected: mRNA expression of PAI (uPA inhibitor PAI) | mRNA expression of uPAR (uPA receptor uPAR)

CC(C)=CCC/C(C)=C/CC/C(C)=C/CC/C(C)=C/CC1=C(C)C(=O)c2ccccc2C1=O [menatetrenone, 2-methyl-3-tetraprenyl-1,4-naphthoquinone]
inhibited: protein expression of MMP-3 (MMP-3 [20]) | protein expression of MMP-1 (MMP-1 [21])
increases: p27 mRNA expression (p27; HepG2 cells, 48 hours) | p21 mRNA expression (p21; HepG2 cells, 48 hours)
dose-dependently inhibits: ability of cancer cells to invade Matrigel [13]
no changes: p16 expression (p16; Huh7 cells) | expression of GAPDH mRNA (GAPDH) | expression of β1 integrin mRNA (β1 integrin) | p27 expression (p27; Huh7 cells) | p21 expression (p21; Huh7 cells)
~50%: decrease of MMP-1 promoter activity (MMP-1 promoter) | decrease of MMP-7 promoter activity (MMP-7 promoter)
easily decomposed by light: stability to light [5]
increased dose-dependently: proportion of G1-phase cells [6] | proportion of G1-phase cells [7] | proportion of G1-phase cells [8] | proportion of G1-phase cells (HLE hepatic cancer cells)
decreased: G2-phase cells [6] | G2-phase cells [7] | G2-phase cells [8] | G2-phase cells (HLE hepatic cancer cells)
dissolves very little: solubility in water [22]
did not affect: binding activity of Tcf/Lef (Tcf/Lef)
no change: p27 expression (p27; Hep3B cells)
slight increase: p16 expression (p16; Hep3B cells) | p21 expression (p21; Hep3B cells)
dose-dependently inhibited: expression of mRNA of MMP-3 (MMP-3 [9]) | expression of mRNA of MMP-14 (MMP-14 (MT1-MMP)) | expression of mRNA of MMP-1 (MMP-1 [10]) | expression of the transcription factor Ets-1 [11] | expression of mRNA of MMP-7 (MMP-7 [12]) | binding activity of AP-1 (AP-1) | cell proliferation [14] | cell proliferation [15] | cell proliferation [16] | cell proliferation [17] | TPA-induced expression of MMP-3 at the protein level (MMP-3 [18]) | TPA-induced expression of MMP-1 at the protein level (MMP-1 [19]) | MMP-1 promoter activity (MMP-1 promoter) | MMP-3 promoter activity (MMP-3 promoter) | MMP-7 promoter activity (MMP-7 promoter) | TPA-induced mRNA expression of uPA ([1]; 20 nM TPA then menatetrenone) | TPA-induced mRNA expression of MMP-3 (MMP-3 [2]; 20 nM TPA then menatetrenone) | TPA-induced mRNA expression of Ets-1 (Ets-1; 20 nM TPA then menatetrenone) | TPA-induced mRNA expression of MMP-1 (MMP-1 [3]; 20 nM TPA then menatetrenone) | TPA-induced mRNA expression of MMP-7 (MMP-7 [4]; 20 nM TPA then menatetrenone)

Source: patent US20060194883A1, “Mmp expression inhibitor” (EISAI CO., LTD, priority 2003, published 2006)
